The values that follow come from ChEMBL document CHEMBL4725370, “Discovery of Proteolysis-Targeting Chimera Molecules that Selectively Degrade the IRAK3 Pseudokinase” (J Med Chem, 2020).

Active and inactive are the calls of the source. The calls are words filed in the database; no cut-off is given here.

For data set [1], the target named is T1, Interleukin-1 receptor-associated kinase 3 (Homo sapiens, UniProt Q9Y616).
T1 sequence (Q9Y616 whole entry): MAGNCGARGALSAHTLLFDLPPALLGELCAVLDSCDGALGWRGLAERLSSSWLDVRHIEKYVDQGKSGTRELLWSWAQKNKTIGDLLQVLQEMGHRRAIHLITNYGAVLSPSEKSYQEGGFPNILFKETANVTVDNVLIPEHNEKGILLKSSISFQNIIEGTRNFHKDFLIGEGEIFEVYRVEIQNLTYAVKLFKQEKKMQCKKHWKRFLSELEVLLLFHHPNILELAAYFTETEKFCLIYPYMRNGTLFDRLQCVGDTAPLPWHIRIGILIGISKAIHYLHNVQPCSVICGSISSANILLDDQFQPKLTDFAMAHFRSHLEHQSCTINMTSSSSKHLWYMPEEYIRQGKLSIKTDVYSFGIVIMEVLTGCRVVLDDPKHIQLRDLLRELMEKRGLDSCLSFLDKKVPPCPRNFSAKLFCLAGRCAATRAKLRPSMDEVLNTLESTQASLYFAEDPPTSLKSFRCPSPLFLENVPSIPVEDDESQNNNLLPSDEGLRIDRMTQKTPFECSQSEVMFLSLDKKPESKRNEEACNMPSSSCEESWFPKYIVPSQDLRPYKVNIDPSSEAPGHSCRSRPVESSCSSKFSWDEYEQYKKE
Nature of the data set: Inhibition of kinase tracer 236 binding to recombinant human full-length GST-tagged IRAK3 expressed in insect cells by Lanthascreen Eu kinase binding assay.

In data set [2] the target is T2, Serine/threonine-protein kinase haspin (Homo sapiens, UniProt Q8TF76).
T2 sequence (Q8TF76 whole entry): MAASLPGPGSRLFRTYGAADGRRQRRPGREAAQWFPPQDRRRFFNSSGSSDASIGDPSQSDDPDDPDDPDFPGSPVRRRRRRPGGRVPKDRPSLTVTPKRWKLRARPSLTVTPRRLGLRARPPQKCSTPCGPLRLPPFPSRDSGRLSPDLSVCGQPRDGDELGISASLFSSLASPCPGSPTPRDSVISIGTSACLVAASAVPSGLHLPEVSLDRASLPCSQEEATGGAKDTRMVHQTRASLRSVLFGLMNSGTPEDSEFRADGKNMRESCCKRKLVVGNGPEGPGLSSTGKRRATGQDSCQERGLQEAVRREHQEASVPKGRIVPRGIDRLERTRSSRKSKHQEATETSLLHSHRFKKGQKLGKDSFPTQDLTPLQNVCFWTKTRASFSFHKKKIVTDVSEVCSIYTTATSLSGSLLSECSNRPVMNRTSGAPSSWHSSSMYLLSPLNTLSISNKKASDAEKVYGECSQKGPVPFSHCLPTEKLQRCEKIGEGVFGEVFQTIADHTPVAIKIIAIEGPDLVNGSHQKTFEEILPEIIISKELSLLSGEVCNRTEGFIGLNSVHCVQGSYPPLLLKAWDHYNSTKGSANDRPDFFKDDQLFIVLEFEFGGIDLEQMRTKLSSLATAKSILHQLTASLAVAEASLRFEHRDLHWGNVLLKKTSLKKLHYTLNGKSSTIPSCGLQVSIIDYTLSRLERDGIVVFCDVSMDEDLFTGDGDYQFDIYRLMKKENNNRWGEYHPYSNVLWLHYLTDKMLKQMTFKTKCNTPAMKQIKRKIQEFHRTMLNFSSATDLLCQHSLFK
Description: Inhibition of GSG2 (unknown origin).

For data set [3], the target named is Interleukin-1 receptor-associated kinase 3 (Homo sapiens) (UniProt Q9Y616). Description: Inhibition of IRAK3 (unknown origin) at 0.1 uM relative to control.
The target of data set [4] is Serine/threonine-protein kinase haspin (Homo sapiens) (UniProt Q8TF76). Description: Inhibition of GSG2 (unknown origin) at 0.1 uM relative to control.
Data set [5] deals with Cyclin-C/Cyclin-dependent kinase 19 (Homo sapiens) (UniProt Q9BWU1+P24863). Description: Inhibition of CDK11/cyclin C (unknown origin) at 0.1 uM relative to control. It counts as protein-complex assay.
For data set [6], the target named is CDK8/Cyclin C (Homo sapiens) (UniProt P49336+P24863). Nature of the data set: Inhibition of CDK8/cyclin C (unknown origin) at 0.1 uM relative to control. It counts as protein-complex assay.
Data set [7] is described as follows: Octanol/buffer partition coefficient, log D of the compound at pH 7.4 by shake-flask method. It counts as physicochemical.
A short description of data set [8]: Intrinsic apparent permeability across apical to basolateral side in human Caco-2 cells. Background: Caco-2 cells form a polarised layer with tight junctions and transporters.
Data set [9] addresses Interleukin-1 receptor-associated kinase 1 (Homo sapiens, UniProt P51617). Description: Inhibition of recombinant human N-terminal GST-tagged IRAK1 (194 to 712 residues) expressed in baculovirus expression system using 5-FAM-KKKVSRSGLYRSPSMPENLNRPR-COOH as substrate measured after 240 mins by mobility shift assay.
Data set [10] deals with T3, Interleukin-1 receptor-associated kinase 4 (Homo sapiens, UniProt Q9NWZ3).
T3 sequence (Q9NWZ3 whole entry): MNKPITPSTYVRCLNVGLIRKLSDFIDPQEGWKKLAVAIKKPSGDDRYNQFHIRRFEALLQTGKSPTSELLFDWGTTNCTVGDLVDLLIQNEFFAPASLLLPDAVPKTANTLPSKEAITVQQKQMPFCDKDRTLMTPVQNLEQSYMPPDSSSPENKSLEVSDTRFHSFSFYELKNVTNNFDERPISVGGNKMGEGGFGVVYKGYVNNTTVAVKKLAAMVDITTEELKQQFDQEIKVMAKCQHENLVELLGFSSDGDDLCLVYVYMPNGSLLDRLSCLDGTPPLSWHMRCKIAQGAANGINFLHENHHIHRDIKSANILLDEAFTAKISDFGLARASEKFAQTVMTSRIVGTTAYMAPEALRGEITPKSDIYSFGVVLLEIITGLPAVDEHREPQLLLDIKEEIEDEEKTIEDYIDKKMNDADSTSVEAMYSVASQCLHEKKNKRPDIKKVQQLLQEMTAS
Description: Inhibition of recombinant human full-length His-tagged IRAK4 expressed in baculovirus expression system using 5-FAM-IPTSPITTTYFFFKKK-COOH as substrate measured after 240 mins by mobility shift assay.

The nature of data set [11]: Efflux ratio of apparent permeability in human Caco-2 cells.
Data set [12] concerns the target Protein cereblon (Homo sapiens, UniProt Q96SW2). Nature of the data set: Inhibition of CRBN (unknown origin).
The target in data set [13] is T4, Protein cereblon/Interleukin-1 receptor-associated kinase 3 (Homo sapiens, UniProt Q9Y616+Q96SW2). Description: Protac activity at CRBN/IRAK3 in LPS-induced human THP1 cells assessed as induction of IRAK3 degradation after 16 hrs by Western blot analysis. The conditions noted are these: thp-1. It counts as cell-based. (In general: Immunoblotting shows a protein as a band on a membrane.)
Target sequence in this assay (Q96SW2 whole entry, one chain of several): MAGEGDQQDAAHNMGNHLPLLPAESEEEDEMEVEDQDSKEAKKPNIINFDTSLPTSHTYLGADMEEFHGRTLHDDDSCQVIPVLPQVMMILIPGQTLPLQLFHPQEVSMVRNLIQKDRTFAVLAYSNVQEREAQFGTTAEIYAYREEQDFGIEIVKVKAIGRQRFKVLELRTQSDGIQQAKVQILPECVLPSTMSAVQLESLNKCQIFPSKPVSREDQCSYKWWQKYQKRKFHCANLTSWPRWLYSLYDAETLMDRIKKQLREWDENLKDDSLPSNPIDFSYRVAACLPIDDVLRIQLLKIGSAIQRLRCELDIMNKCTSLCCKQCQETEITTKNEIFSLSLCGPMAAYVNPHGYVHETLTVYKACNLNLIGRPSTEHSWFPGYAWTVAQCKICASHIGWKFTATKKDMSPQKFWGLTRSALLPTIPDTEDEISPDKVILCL

In data set [14] the target is T4, Protein cereblon/Interleukin-1 receptor-associated kinase 3. Nature of the data set: Protac activity at CRBN/IRAK3 in human THP1 cells assessed as induction of IRAK3 degradation at 0.1 to 10 uM measured after 24 hrs by Western blot analysis. It counts as cell-based. The conditions noted are these: THP-1, dose microM 0.1-10, time […].
Target sequence in this assay (Q96SW2 whole entry, looked up, one chain of several): as the sequence (Q96SW2 whole entry, one chain of several) above
Data set [15] has the same target. Description: Protac activity at CRBN/IRAK3 in human PBMC derived primary macrophages assessed as induction of IRAK3 degradation at 0.3 uM measured after 8 to 32 hrs by Western blot analysis. It counts as tissue-based. The settings on record: Primary macrophage, time hrs 8-32.
Target sequence in this assay (Q96SW2 whole entry, looked up, one chain of several): as the sequence (Q96SW2 whole entry, one chain of several) above
Data set [16] has the same target. Nature of the data set: Protac activity at CRBN/IRAK3 in human PBMC derived primary macrophages assessed as induction of IRAK3 degradation at 0.3 uM preincubated for 8 hrs followed by LPS-stimulation and measured after 8 to 32 hrs by Western blot analysis. It counts as tissue-based. The conditions noted are these: Primary macrophage.
Target sequence in this assay (Q96SW2 whole entry, looked up, one chain of several): as the sequence (Q96SW2 whole entry, one chain of several) above

Sequence of Interleukin-1 receptor-associated kinase 1 (P51617 whole entry, the tested form may be a part): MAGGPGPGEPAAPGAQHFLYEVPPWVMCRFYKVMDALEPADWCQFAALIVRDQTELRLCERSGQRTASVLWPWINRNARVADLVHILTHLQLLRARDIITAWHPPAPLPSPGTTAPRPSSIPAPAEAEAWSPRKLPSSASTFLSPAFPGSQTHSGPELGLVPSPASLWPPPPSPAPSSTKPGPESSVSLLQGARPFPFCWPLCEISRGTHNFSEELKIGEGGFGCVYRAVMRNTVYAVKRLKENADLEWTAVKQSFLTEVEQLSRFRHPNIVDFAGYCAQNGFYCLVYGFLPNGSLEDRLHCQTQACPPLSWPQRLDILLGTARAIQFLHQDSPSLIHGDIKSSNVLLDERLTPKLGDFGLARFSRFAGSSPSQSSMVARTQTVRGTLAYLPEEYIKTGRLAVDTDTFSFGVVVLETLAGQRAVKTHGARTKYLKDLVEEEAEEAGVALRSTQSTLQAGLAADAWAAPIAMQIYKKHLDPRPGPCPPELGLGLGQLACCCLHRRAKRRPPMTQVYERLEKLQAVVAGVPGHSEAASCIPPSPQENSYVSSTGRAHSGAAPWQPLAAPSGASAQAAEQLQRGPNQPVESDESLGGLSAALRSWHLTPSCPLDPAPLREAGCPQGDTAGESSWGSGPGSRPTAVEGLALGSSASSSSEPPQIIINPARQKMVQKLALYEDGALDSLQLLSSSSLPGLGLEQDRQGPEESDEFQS
Sequence of Protein cereblon (Q96SW2 whole entry): as the sequence (Q96SW2 whole entry, one chain of several) above

For orientation: IC50 means the concentration needed to halve the response being measured. In general, inhibition refers to the share of the control response that was lost under treatment. A low value points to a response near the control. `CC(=O)N1CCN([C@H]2CC[C@@H](Nc3ncnn4ccc(C(C)C)c34)CC2)CC1`: the IC50 in data set [1] turned out to be 0.006 µM; in [2], 0.15 µM. For the same molecule, the inhibition in data set [3] worked out at 91%; in [4], 55%; in data set [5] it was 51%; in data set [6], 39%.

As usually defined, the logD is the decadic logarithm of the distribution of all forms, ionised or not, between an organic phase and buffer at a given pH. Low readings indicate a more hydrophilic compound, high ones a more lipophilic compound. What is called Papp A→B is the apparent permeability from the apical to the basolateral side of a cell layer. Usually efflux ratio stands for a quotient of directional permeabilities that is used to spot active efflux. On to `CC(=O)N1CCN([C@H]2CC[C@@H](Nc3ncnc4[nH]cc(C(C)C)c34)CC2)CC1`, for which the logD in data set [7] is 2.3. Further, the Papp A→B in [8] stood at 12 ×10⁻⁶ cm/s. In addition, the values for the IC50 in data set [9], in [1] and in data set [10] were 1.4 µM, 0.004 µM and 0.84 µM, respectively. Also, the efflux ratio in data set [11] turned out to be 4.3.

Usually DC50 stands for the concentration giving 50% degradation. `CC(C)c1ccn2ncnc(N[C@H]3CC[C@@H](N4CCN(C(=O)CCC(=O)N5CCC(CCN6CCN(c7ccc8c(c7)C(=O)N(C7CCC(=O)N(C)C7=O)C8=O)CC6)CC5)CC4)CC3)c12` (stereo partly specified): the logD in data set [7] was 3.7. Besides, the half-maximal inhibitory concentration (IC50) in data set [9] was 3.4 µM; in [1] it was 0.004 µM; in [10], more than 1 µM; in data set [12], more than 12 µM. In addition, the DC50 in data set [13] is more than 10 µM. The outcome in data set [14], in data set [15] and in data set [16] was inactive.
